Results on 89 compounds are retold here after a melting point compilation (Tetko et al.; mined from patent text by program, amines drawn as free bases though some values may be those of a salt).

Molecules are shown by their SMILES.

As a reminder, the melting point is the temperature of the solid-liquid transition. The compound `O=C1Nc2ccccc2C2=NC(CN3CCN(c4ccccc4)CC3)CN12` (centres undefined) gave a melting point of 257 to 258 °C.

The compound `CCCCNc1nc(C)c(C(=O)c2ccc(Cl)c([N+](=O)[O-])c2)s1` showed a melting point of 125 to 128 °C.

In turn, `O=C(O)COc1nc2cc(Cl)c3cccnc3c2o1` gave a melting point of 214 to 215 °C.

`CCOC(=O)C1(C(=O)OCC)COC2(CC(C)(C)N(C(C)=O)C(C)(C)C2)OC1` gave a melting point of 75 to 77 °C.

As for `O=c1[nH]cccc1-c1cccn2nc(Nc3ccc4ncccc4c3)nc12`, the melting point is over 250 °C.

`CC1(C)CC(NC(=O)c2ccc(-c3cc4cc(Cl)c(Cl)cc4[nH]3)c(OCc3ccccc3)c2)CC(C)(C)N1` displayed a melting point of 220 °C.

`CCOC(=O)c1ncn2c1CN(Cc1ccc(OC)cc1OC)C(=O)c1cc(OC)ccc1-2`: the melting point was 204 °C.

On to `Oc1ccc(-c2ccc(F)cc2F)cc1C12CC3CC(CC(C3)C1)C2`, for which the melting point was 146 to 148 °C.

Compound `Cc1cc(-c2nc3cccnn3c2-c2ccnc(NC(=O)NC(C)(C)C)c2)ccc1F` showed a melting point of 234 to 235 °C.

`O=C(O)C(Cl)(Cl)Cc1ccccc1` registered a melting point of 173 to 176 °C.

`O=C(O)c1ccc(/C=C/c2ccc3c(=O)[nH]ncc3c2)cc1` came in with a melting point of over 345 °C.

Compound `O=C(C=Cc1ccccc1)Oc1ccccc1` gave a melting point of 114 to 116 °C.

On to `COc1ccc2cc(C#CC(C)N(O)C(N)=O)ccc2c1` (centres undefined), for which the melting point lay within 181 to 183 °C.

In turn, `CCOC(=O)/C=C/c1ccc(OCCN2CCCC2=O)cc1OCc1ccccc1` showed a melting point of 94 to 97 °C.

With `COC(=S)c1ccncc1Cc1ccccc1`, the melting point fell in the range of 79 to 80 °C.

On to `CNC1c2ccccc2CC1N1CCCCC1` (centres undefined), for which the melting point is over 260 °C.

`CCCCCC1=C(/C=C/C(=O)O)Cc2cc(OC)ccc21` yielded a melting point of 165 to 166 °C.

Regarding `O=C(O)c1cc(OCc2ccccc2)nn1-c1ccccc1`, the melting point was 163 to 164 °C.

As to `CCCCCSc1c[nH]nc1C1=CCCN(C)C1`, the melting point was in the range of 100 to 101 °C.

Regarding `O=C(O)Cc1ccc(NC(=O)C=C2CC(C(=O)O)Nc3cc(Cl)cc(Cl)c32)cc1` (racemic), the melting point was over 220 °C.

For the compound `CC(O)(C#Cc1ccc(C(=O)c2ccccn2)cc1)C(F)(F)F` (centres undefined), the melting point is 116 to 118 °C.

For the compound `O=C(O)Cc1ccc2onc(-c3ccc(Cl)cc3)c2c1`, the melting point stood at 189 °C.

As for `COc1cc(OC)c(-c2cc3ccccc3s2)cc1/C=C/C(=O)c1ccc(C(N)=O)cc1`, the melting point lay within 240 to 241 °C.

As to `O=S(=O)(Nc1cccc(Cl)c1Cl)c1cc(S(=O)(=O)Nc2cccc(Cl)c2Cl)c2cc(O)ccc2c1`, the melting point was 117 to 119 °C.

Regarding `O=C(O)c1ccc2c([N+](=O)[O-])c(O)c(O)cc2c1`, the melting point was over 310 °C.

In turn, `C=Cc1cc(OP(=O)(O)O)cc2nc(-c3ccc(OP(=O)(O)O)c(F)c3)oc12` had a melting point of over 180 °C.

`CSc1ccc2cc(C(=O)c3ccccc3)cc(CCNC(C)=O)c2c1` registered a melting point of 126 to 128 °C.

`NS(=O)(=O)c1cc(Br)c2c(c1)S(=O)(=O)NC(C1CCCCC1)N2` (centres undefined) gave a melting point of 254 to 258 °C.

`COc1cc(C=C(N)C(C)=O)ccc1OCC1CO1` (centres undefined) showed a melting point of 173 to 174 °C.

`CC1(C)c2ccccc2C(C)(C)C1(S)CCO` returned a melting point of 85 to 87 °C.

Compound `COc1cc(C(C)=O)ccc1C1CCCCO1` (centres undefined) showed a melting point of 67 to 69 °C.

`CCC1(C)CC(=O)C(C(=O)Nc2ccc(Cl)c(C(F)(F)F)c2)C(=O)C1` (centres undefined) registered a melting point of 87 to 88 °C.

Turning to `CN1CCN(c2ccc(F)cc2C=C2CCCN(c3ccc(Cl)c(Cl)c3)C2=O)CC1`, the melting point lay within 161 to 162 °C.

The compound `COC(=O)NCC1CN(c2ccc(C3C=CS(=O)(=O)CC3)cc2)C(=O)O1` (centres undefined) registered a melting point of 196 to 197 °C.

Compound `CSc1snc(SCOCC#CI)c1C#N` registered a melting point of 87 to 88 °C.

`COC(=O)N1CCCC2CN(c3ccc(N4CC(CNC(C)=O)OC4=O)cc3F)CC21` (centres undefined) came in with a melting point of 83 to 85 °C.

`COCCCOc1cc(C[C@@H](C(=O)O)C(C)C)ccc1OC` came in with a melting point of 43.5 to 44 °C.

Turning to `O=C1c2c(O)cccc2C(C(=O)C2CCCCC2)c2cccc(O)c21`, the melting point was 220 °C.

As for `CC(C)(Oc1ccc(CC(=O)Nc2cc(Cl)c(Cl)c(Cl)c2)cc1)C(=O)O`, the melting point came out at 160 °C.

As to `CC(C(N)=O)c1ccc(Oc2ccccc2F)cc1` (centres undefined), the melting point fell in the range of 106 to 108 °C.

Compound `COc1ccc(-c2nn(CC3CC3)c(=O)c(C(N)=O)c2-c2ccc(OC)cc2)cc1` yielded a melting point of 174 to 175 °C.

`O=c1cnc2cc(Cl)cc(Cl)c2[nH]1` registered a melting point of 228 to 229 °C.

The compound `COC(=O)c1cc(C2(c3ccc(F)c(-c4cncnc4)c3)N=C(N)N(C)C2=O)cn1CCF` (centres undefined) displayed a melting point of 88 to 90 °C.

As to `CCCCCCCCCCCCCCOC(=O)c1ccc(OC)c(N)c1`, the melting point was 54 to 56 °C.

As to `Oc1cccc(-c2cc(-c3ccc(-c4ccccc4)cc3)cc(-c3ccc4ccccc4c3)n2)c1`, the melting point lay in the range of 174 to 175 °C.

Compound `COC(=O)[C@@H]1COC(=S)N1C(=O)c1ccccc1` registered a melting point of 87.2 to 88 °C.

`COc1cccc2c1OCN(CCc1ccccc1)C2` displayed a melting point of 63 to 66 °C.

As for `N#Cc1cccc(C2C(=O)c3ccccc3C2=O)c1`, the melting point was 179 to 182 °C.

`COC(=O)c1cccc2c1Oc1ccccc1N2` gave a melting point of 113 to 114 °C.

`COc1cc(OC)c2c(c1)N1CCCCC1CC2=O` (centres undefined): the melting point fell in the range of 91 to 94 °C.

The compound `O=C(NC1CCCCC1)NC1CCN(CCc2c[nH]c3ccccc23)CC1` came in with a melting point of 204 °C.

Consider `CN(C)CCN(c1ccccc1NCCOc1ccc(Cl)cc1)S(=O)(=O)c1ccc(Cl)cc1`, for which the melting point was determined as 99 °C.

For `COc1ccc(C2=NN(c3nc(-c4cccs4)ns3)C(=O)[C@H]3CC=CC[C@@H]23)cc1Cl` (relative stereo), the melting point was 254 to 256 °C.

`Cc1cc(-c2ccccc2)c(C)cc1-c1ccccc1` yielded a melting point of 301 to 304 °C.

Compound `COc1ccccc1-c1cccc2nc(Nc3cc(OC)c(OC)c(OC)c3)oc12` displayed a melting point of 185 to 187 °C.

`COc1ccc(NC(=O)NC2N=C(c3ccccc3)c3ccccc3N(C)C2=O)cc1` (centres undefined): the melting point was 261 to 263 °C.

Turning to `CC(CCc1ccc(O)cc1)NCC(O)c1cccc(Cl)c1` (centres undefined), the melting point lay in the range of 103 to 110 °C.

Consider `O=C(c1cccc(F)c1)N1CCc2cc(S(=O)(=O)N3CC(c4ccccc4)NC3=O)ccc21` (centres undefined), for which the melting point was 202 °C.

`CC(C)C[C@H](NC(=O)[C@H](Cc1cccc2ccccc12)NC(=O)OCc1ccccc1)C(=O)NN` displayed a melting point of 200 to 204 °C.

`CC(C(=O)N(C)C)n1cc(Cl)c(-c2ccccc2Cl)n1` (centres undefined) registered a melting point of 108 to 111 °C.

`CN(C)c1ccc(C(=O)c2ccc(O)cc2)cc1` displayed a melting point of 199 to 200 °C.

For the compound `CC(C)NCC(O)COc1cccc2c1CCC(O)C2` (centres undefined), the melting point lay in the range of 136 to 141 °C.

`COC(=O)c1cc(-c2nnn(C)n2)c(C(=O)OC)s1` gave a melting point of 121 to 122 °C.

`CSc1c(CO)sc2c1CCN(C)CC2c1ccccc1` (centres undefined): the melting point stood at 146 °C.

With `CN(CCO)S(=O)(=O)c1cc(NC(=O)c2cnn3c(C(F)(F)F)cc(-c4ccc(C(F)(F)F)cc4)nc23)c(Cl)s1`, the melting point is 221 °C.

`Cc1cc(OCCN(C)C)c(C(C)C)cc1OC(=O)CCCC(=O)O` displayed a melting point of 109 to 110 °C.

`CCOC(=O)n1c(C(=O)c2ccc(F)cc2)c(NC(C)=O)c2ccc(Cl)cc21` gave a melting point of 196 to 198 °C.

As to `Cc1cc(C)c(C(C#N)c2nc(C)nc(Cl)c2C)c(C)c1` (centres undefined), the melting point is 100 to 102 °C.

`CCCCCCCCCCCCCCCCCCNC(=O)OCC(CN)COC` (centres undefined): the melting point was in the range of 84 to 85 °C.

Turning to `CN1C(=O)[C@H](NC(=O)CNc2ccccc2Cl)N=C(c2ccccc2)c2ccccc21`, the melting point is 222 to 224 °C.

The compound `COC(=O)C(C)(C)OCc1cc2cc(Cl)ccc2n1S(=O)(=O)c1ccc2c(c1)OCO2` returned a melting point of 90 to 92 °C.

On to `Cn1cccc1C(=O)c1ccc2ccccc2c1`, for which the melting point was 108 to 110 °C.

Consider `Cc1cccc(C(=O)NC(CC(C)C)C(=O)O)c1SSc1c(C)cccc1C(=O)NC(CC(C)C)C(=O)O` (centres undefined), for which the melting point was in the range of 210 to 211 °C.

`CCCCCCCCCCCCCCCCCCOC(=O)CP(=O)(OCC)OCC` showed a melting point of 28 to 31 °C.

`CCCCc1ccc(NC(=O)c2ccccc2C(c2ccc(O)cc2)c2ccc(O)cc2)cc1` returned a melting point of 119 to 121 °C.

As to `C#Cc1ccc(NC=C(C(=O)NCCC)C(=O)c2ccccc2Cl)cc1`, the melting point was 95 to 96 °C.

As for `CSc1nnc(C2CCCCC2)c(=O)n1C`, the melting point was in the range of 84 to 88 °C.

For `O=C(Nc1cccc2ccccc12)N(CCCN1CCC(Cc2ccccc2)CC1)c1ccccc1`, the melting point was 124 to 127 °C.

Compound `O=C(Nc1cccnc1)c1cccc(-c2ccc3c(c2)C(Oc2ccc(Cl)cc2Cl)CC3)c1` (centres undefined) showed a melting point of 188 to 189 °C.

In the case of `CCCC(=O)c1cnc2ccc(COC(=O)c3ccccc3)cc2c1Nc1ccccc1C`, the melting point fell in the range of 142 to 144 °C.

`O=C(CCO)NCc1ccc2ccn(C3CCN(CCc4ccccc4F)CC3)c2c1` had a melting point of 58 to 59 °C.

In turn, `c1ccc2c(=Nc3ccncc3)cc3oc4cc(N5CCOCC5)ccc4nc-3c2c1` displayed a melting point of over 300 °C.

`CC(=O)C(Cc1ccc(O)cc1)C(C)=O` came in with a melting point of 93 to 94.5 °C.

Compound `Cc1c(C)c2c(c(C)c1O)C(c1ccc(N3CCN(C)CC3)cc1)C(C)(C)O2` (centres undefined) displayed a melting point of 159 to 161 °C.

With `COC(=O)[C@@H](NC(=O)OCc1ccccc1)C(C)C`, the melting point fell in the range of 54 to 56 °C.

The compound `Nc1ccc(-c2ncnn2-c2ccccc2F)cc1` showed a melting point of 139 to 141 °C.

In turn, `CC(C)(C)c1cc(-c2cncc(C3SC(N4CCOCC4)=NC3=O)c2)ccc1O` (centres undefined) showed a melting point of 231 to 234 °C.

As to `COc1ccc2c(c1)C(=NOCCCN)c1c-2c(N2CCNCC2)nc2ccccc12`, the melting point was in the range of 89 to 90 °C.

Consider `CC(C)OC(=O)c1cc(-c2ccccc2)c(=O)n2c1-c1sccc1CC2`, for which the melting point was found to be 166 °C.
